# Experimental data published in patent publication US9655909B2, “Personalized medicine for the prediction of therapy targeting the hedgehog pathway” (Board of Regents, The University of Texas System, priority 2012, dated 2017).
# What was measured:
# [1] = system: Gli-dependent luciferase reporter; test: Gli-dependent luciferase reporter assay in EAC cell lines; type: cell-based, human
# Method: Because Gli protein activity is a useful readout for the HH pathway (Jiang and Hui, 2008), the inventors employed a Gli-dependent luciferase reporter system (Sasaki et al., 1997) to evaluate the influence of TNFα on the HH pathway in three EAC cell lines, BE3, SKGT-4, and OE33 (Boonstra et al., 2010). […] Then, the inventors compared the activity of HH pathway in EAC cells stimulated by SHH or TNFα.
# Cells were seeded in six-well plates and transfected with GliBS or mGliBS combined with CMV-Renilla vector as an internal standard. After overnight (12-16 hr) transfection, the cells were used for further experiments. After treatment, the cells were rinsed with PBS and subjected to luciferase assay using a dual-luciferase reporter assay system (Promega) based on the manufacturer's instruction.
# [2] = system: EAC cell lines and BE3 Gli1 stable clones; test: IC50 evaluation for cyclopamine and GDC-0449 (cell growth); type: cell-based, human; details: for resistance of BE3/Gli1 under TNFα treatment: TNFα 5 ng/mL; for efficacy in the EAC cell lines with rapamycin treatment: rapamycin 10 nM pre-treatment
# Method: FIGS. 7A-7G. […] FIG. 7A. The expression of activated SHH (SHH-N) in EAC cell lines and the cell culture medium. FIG. 7B. The mRNA levels of Gli1 target genes in EAC cell lines with or without SHH treatment (1 μg/mL). The mRNA levels of Gli1 target genes are normalized to ACTIN. Error bars represent SD (n=3). FIG. 7C. […] Error bars represent SD (n=4). FIG. 7D. […] Error bars represent SD (n=4). FIG. 7E. […] Error bars represent SD (n=4). FIG. 7F. […] Error bars represent SD (n=4). FIG. 7G. In vivo combination therapy for subcutaneously inoculated tumors from BE3 cells using GDC-0449 (50 mg/kg) or RAD001 (10 mg/kg). One million cells were subcutaneously injected into the right flank of nude mice and the tumor cells were allowed to grow for 10 days (the arrow) before initiation of drug treatment. The vehicle, GDC-0449, RAD001, or combination of GDC-0449 and RAD001 were orally administrated, qd. The tumor volume measured and calculated using the formula: l×w^2, where l is the longest diameter and w is the shortest diameter. Error bars represent SD (n=5).
# The concentrations required to inhibit cell growth by 50% (IC50) were calculated from survival curves.
# [3] = system: subcutaneously inoculated tumors from BE3 cells; test: In vivo combination therapy of subcutaneous BE3 tumors; set-up: species or system nude mice
# Description: FIG. 7A. […] FIG. 7B. […] Error bars represent SD (n=3). FIG. 7C. […] FIG. 7G.
# Gli1 [4] = test: Western blot of Gli1 in breast cancer cell lines; type: cell-based; details: for Gli1 protein levels: BT549 and Hs578t breast cancer cells
# Method: FIG. 21. […] Western blot showing the effect of PF-4708671 on S6 phosphorylation, S6K1 phosphorylation, and Gli1 expression in the BT549 cell line. Tubulin was detected as a loading control. Lane labels indicate the micromolar concentration of PF-4708671 used.
# FIG. 22. […] DMSO was used as a negative control.
# A western blot was performed to show the effect of PF-4708671 on S6 phosphorylation, S6K1 phosphorylation, and Gli1 expression in the BT549 cell line (FIG. 21).
# [5] = system: CF-Pac-1 and AsPC-1 stable clones; test: MTT assay of PDAC Gli1 stable clones with GEM; type: cell-based
# Description: FIGS. 19A-C. Gli1 is negatively correlated with sensitivity of pancreatic cancer cells to GEM. Gli1 knock-down sensitized the response of PDAC cells to gemcitabine (GEM), but overexpression of Gli1 protected PDAC cells from GEM. FIG. 19A. Western blot of Gli1 in stable clones of AsPC-1 and CF-Pac-1 cells with Gli1 knocked down or ectopic expression. FIG. 19B. MTT assay of CF-Pac-1 stable clones with GEM. FIG. 19C. MTT assay of AsPC-1 stable clones with GEM.
# Knock-down of Gli1 in PDAC cells sensitized the cells to gemcitabine (GEM), and overexpression of Gli1 protected PDAC cells from GEM. The inventor's performed a western blot for Gli1 in stable clones of AsPC-1 and CF-Pac-1 cells with Gli1 knocked down or ectopically expressed (FIG. 19A). MTT assays were performed on CF-Pac-1 stable clones (FIG. 19B) and AsPC-1 stable clones (FIG. 19C) with GEM. Gli1 expression correlated negatively with sensitivity of pancreatic cancer cells to GEM.
# Gli1 [6] = test: Gli1 nuclear accumulation (cell fractionation Western blot, immunofluorescence) in BE3 cells; type: cell-based, human; details: TNFα 5 ng/mL alone
# Method: FIGS. 1A-1E. TNFα regulates Gli1 transcriptional activity. FIG. 1A. Luciferase assay for Gli transcriptional activity in esophageal adenocarcinoma (EAC) cell lines with or without TNFα (5 ng/mL) stimulation. The EAC cells were transfected using GliBS-Luciferase or mGliBS-Luciferase with CMV-Renilla at a 10:1 ratio, serum-starved overnight, and then treated with TNFα for 24 hr. GliBS is a Gli-responsive reporter, and mGliBS is a Gli-unresponsive reporter. Error bars represent SD (n=5). FIG. 1B. The mRNA levels of Gli1 target genes in the EAC cell lines with or without TNFα (5 ng/mL) stimulation were examined by real-time PCR and normalized to the mRNA level of ACTIN. Error bars represent SD (n=4). FIG. 1C. […] FIG. 1D. […] Then, the cells were lysed for cell fractionation followed by Western blotting. Lamin B and tubulin were used as markers for the nucleus and the cytoplasm, respectively. FIG. 1E. Immunofluorescent analysis of Gli1 in BE3 cells treated with TNFα (5 ng/mL) alone or co-treated with TNFα and rapamycin (50 nM) for the indicated time course. Scale bar=100 μm for original picture and 25 μm for inset. Dapi was used to stain nuclei.
# Cellular fractionation was performed as described previously (Lin et al., 2001). Briefly, cells were lysed in the lysis buffer (20 mM HEPES, pH 7.0, 10 mM KCl, 2 mM MgCl2, 0.5% NP-40, 1 mM Na3VO4, 10 mM NaF, 1 mM PMSF, 2 μg/mL aprotinin). […]
compound,measurement,setting,value
CS(=O)(=O)c1ccc(C(=O)Nc2ccc(Cl)c(-c3ccccn3)c2)c(Cl)c1 [GDC-0449],constitutive activation of HH pathway in EAC cell lines,"[1]; Gli reporter, EAC cell lines, FIG. 9A",can be inhibited
same,mTOR/S6K1-mediated Gli1 activation,[1]; SMO inhibitors,had little effects
same,"IC50 value in BE3/S84E compared with BE3/EV, BE3/Gli1 and BE3/S84A","[2]; 48 hr, Gli1 stable clones",much higher
same,resistance of BE3/Gli1 under TNFα treatment,[2],increased the resistance
same,efficacy in the EAC cell lines with rapamycin treatment,[2],enhanced the efficacy
same,EAC tumor size,"[3]; GDC-0449 50 mg/kg qd oral, alone",decreased the EAC tumor size
NC1(c2ccc(-c3nc4ccn5c(=O)[nH]nc5c4cc3-c3ccccc3)cc2)CCC1 [MK],Gli1 protein levels,Gli1 [4],decreased Gli1 protein levels
CCc1cncnc1N1CCN(Cc2nc3ccc(C(F)(F)F)cc3[nH]2)CC1 [PF-4708671],Gli1 expression,Gli1 [4]; BT549 cell line,decreased
"CO[C@H]1C[C@@H]2CC[C@@H](C)[C@@](O)(O2)C(=O)C(=O)N2CCCC[C@H]2C(=O)O[C@H]([C@H](C)C[C@@H]2CC[C@@H](OCCO)[C@H](OC)C2)CC(=O)[C@H](C)/C=C(\C)[C@@H](O)[C@@H](OC)C(=O)[C@H](C)C[C@H](C)/C=C/C=C/C=C/1C [RAD001, everolimus]",tumor-inhibitory effect of GDC-0449 when combined with RAD001,[3]; GDC-0449 50 mg/kg and RAD001 10 mg/kg qd oral,enhanced the tumor-inhibitory effect
same,tumor growth,"[3]; RAD001 10 mg/kg qd oral, alone, low dose",did not inhibit tumor growth
same,Gli1 protein levels,Gli1 [4],decreased Gli1 protein levels
CC1=C2C[C@H]3[C@@H](CC=C4C[C@@H](O)CC[C@@]43C)[C@@H]2CC[C@]12O[C@@H]1C[C@H](C)CN[C@H]1[C@H]2C [cyclopamine],resistance of BE3/Gli1 under TNFα treatment,[2],increased the resistance
same,efficacy in the EAC cell lines with rapamycin treatment,[2],enhanced the efficacy
Nc1ccn([C@@H]2O[C@H](CO)[C@@H](O)C2(F)F)c(=O)n1 [gemcitabine],response of PDAC cells with knock-down of Gli1,[5],sensitized
same,response of PDAC cells with overexpression of Gli1,[5],protected
TNFα,activity of HH pathway in EAC cells,"[1]; Gli reporter, stimulation by SHH or TNFα, FIG. 9A",increased the activity of HH pathway
same,Gli1 nuclear accumulation,Gli1 [6],rapidly induced Gli1 nuclear accumulation
